{"source": "patent US9371365B2", "about": "“Modified compstatin with peptide backbone and C-terminal modifications” (The Trustees of the University of Pennsylvania, priority 2009, dated 2016)", "key": {"[1]": {"tested_on": "classical pathway of complement", "experiment": "Inhibition of classical pathway complement activation, ELISA in human serum", "format": "biochemical", "method": "The ability of the compstatin analogs to inhibit the activation of the classical pathway of complement was assessed by ELISA (Mallik et al., 2005, J Med Chem 48:274-86). In brief, complement was activated in human serum using an antigen-antibody complex in the presence or absence of compstatin analogs, and the deposition of C3 fragments on the plate surface was detected using an HRP-conjugated polyclonal anti-C3 antibody. […] The percent inhibition was plotted against the peptide concentration, and the resulting data set was fitted to the logistic dose-response function using Origin 7.0 software. IC50 values were obtained from the fitted parameters that produced the lowest χ^2 value. Each analog was assayed at least three to seven times.\nThe ability of the compstatin analogs to inhibit the activation of the classical pathway of complement was assessed by ELISA as described in Example 1. Each conjugate was assayed at least three times."}, "[2]": {"target": "T1, C3 (Homo sapiens, UniProt P01024)", "T1 construct": "C3 was purified from fresh human plasma; from tissue; host or cells: fresh human plasma (blood bank of the Hospital of the University of Pennsylvania)", "T1 sequence (P01024 23-667 limits assumed)": "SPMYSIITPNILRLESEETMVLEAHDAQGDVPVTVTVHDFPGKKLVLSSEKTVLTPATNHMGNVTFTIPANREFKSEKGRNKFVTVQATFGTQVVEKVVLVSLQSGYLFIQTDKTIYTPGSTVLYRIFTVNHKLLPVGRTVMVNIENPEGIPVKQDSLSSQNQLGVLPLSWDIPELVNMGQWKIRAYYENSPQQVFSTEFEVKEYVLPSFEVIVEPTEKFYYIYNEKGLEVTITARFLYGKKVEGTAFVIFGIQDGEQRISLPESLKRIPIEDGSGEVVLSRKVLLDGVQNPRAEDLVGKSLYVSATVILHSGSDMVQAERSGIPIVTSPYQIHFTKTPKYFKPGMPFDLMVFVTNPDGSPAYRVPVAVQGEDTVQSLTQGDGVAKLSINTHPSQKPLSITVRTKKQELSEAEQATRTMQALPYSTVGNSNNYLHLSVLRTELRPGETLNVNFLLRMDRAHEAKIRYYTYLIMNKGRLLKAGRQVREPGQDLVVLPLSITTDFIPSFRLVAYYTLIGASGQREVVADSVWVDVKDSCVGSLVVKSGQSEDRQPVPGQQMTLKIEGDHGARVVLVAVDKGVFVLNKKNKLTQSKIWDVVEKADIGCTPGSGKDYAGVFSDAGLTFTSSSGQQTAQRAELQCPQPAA", "T1 sequence (P01024 672-1663 limits assumed)": "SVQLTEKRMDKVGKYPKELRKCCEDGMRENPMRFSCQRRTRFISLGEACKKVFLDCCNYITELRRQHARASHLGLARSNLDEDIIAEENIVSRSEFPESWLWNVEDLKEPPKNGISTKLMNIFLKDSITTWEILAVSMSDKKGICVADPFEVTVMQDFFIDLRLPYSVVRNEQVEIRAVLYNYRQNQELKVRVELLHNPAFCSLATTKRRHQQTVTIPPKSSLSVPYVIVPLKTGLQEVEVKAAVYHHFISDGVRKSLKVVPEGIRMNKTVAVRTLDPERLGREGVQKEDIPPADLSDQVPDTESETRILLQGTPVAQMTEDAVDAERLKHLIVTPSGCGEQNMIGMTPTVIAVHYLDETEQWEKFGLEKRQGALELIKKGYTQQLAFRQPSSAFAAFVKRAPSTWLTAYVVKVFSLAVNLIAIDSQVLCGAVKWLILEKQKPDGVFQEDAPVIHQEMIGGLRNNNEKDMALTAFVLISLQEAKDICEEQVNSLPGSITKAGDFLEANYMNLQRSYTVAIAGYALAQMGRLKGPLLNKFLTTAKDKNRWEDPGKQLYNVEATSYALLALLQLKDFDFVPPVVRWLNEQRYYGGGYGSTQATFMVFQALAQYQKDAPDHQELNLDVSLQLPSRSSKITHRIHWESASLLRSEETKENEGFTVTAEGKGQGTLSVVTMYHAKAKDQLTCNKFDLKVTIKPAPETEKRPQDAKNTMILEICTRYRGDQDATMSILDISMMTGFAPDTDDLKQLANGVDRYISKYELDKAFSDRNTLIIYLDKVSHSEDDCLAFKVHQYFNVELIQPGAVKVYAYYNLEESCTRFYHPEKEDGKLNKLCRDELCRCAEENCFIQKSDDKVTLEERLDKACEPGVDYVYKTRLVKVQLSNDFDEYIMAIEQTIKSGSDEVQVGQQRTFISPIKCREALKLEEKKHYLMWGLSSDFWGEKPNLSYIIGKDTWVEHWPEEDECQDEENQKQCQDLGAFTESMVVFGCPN", "experiment": "ITC analysis of binding to C3", "method": "C3 was purified from fresh human plasma obtained from the blood bank of the Hospital of the University of Pennsylvania. In brief, the plasma was fractionated with 15% (w/v) PEG 3350, and the pellet was resuspended in 20 mM phosphate buffer, pH 7.8, and then subjected to anion-exchange chromatography on a DEAE-HR 40 column (50×5 cm; Millipore Inc., Billerica, Mass.) with the same buffer. Proteins were eluted with 6 L of a linear gradient (15-70%) of 20 mM phosphate buffer, pH 7.8, containing 500 mM NaCl. C3 was further purified on a size-exclusion Superdex 200 26/60 column (Amersham Biosciences) and a Mono S column (Amersham Biosciences) to separate C3 from C3(H2O).\nAll titrations were performed in PBS (10 mM phosphate buffer with 150 mM NaCl, pH 7.4) at 25° C. using multiple peptide injections of 2-7 μL each. The raw isotherms were corrected for the heats of dilution by subtracting the isotherms representing peptide injections into the buffer. The resulting isotherms were fitted to a single site of sites models using Origin 7.0 software, and the model that produced the lowest χ^2 value was deemed to be appropriate for the respective data set. The Gibbs free energy was calculated as ΔG=ΔH−TΔS. Each experiment was repeated at least twice."}, "[3]": {"experiment": "In vivo retention: plasma half-life in baboons by LC-MS/MS", "set-up": "species or system baboon (P. Anubis)", "settings": "P. Anubis, baboon (P. Anubis), in vivo, iv, 10 mg", "method": "A 96-well plate HLB Oasis 10 mg (Waters, Milford, Mass.) was employed for extraction. The SPE material was conditioned by addition of 500 μl of methanol followed by addition of 500 μL of milli-Q water. Sample was prepared by addition of the internal standard followed by 1:1 dilution with 4% H3PO4. After loading the sample, washing was carried out with 500 μL of 5% methanol in 0.1% formic acid. Sample was eluted with 150 μL of 65% methanol in 0.1% formic acid and collected in the collection plate. Solvent was evaporated to dryness in a speed-vac concentrator and reconstituted in 5% acetonitrile in 0.1% formic acid. Samples were kept at −20° C. until analysis.\nBaboon plasma samples, 40 μL, were mixed with internal standard and dissolved 1:1 with 40 mM ammonium carbonate buffer. Rapigest detergent was added to a final concentration of 0.1%. Disulfide bridges were reduced in 5 mM DTT for 30 min at 60° C. Alkylation of cysteines was done by addition of iodoacetamide to a final concentration of 15 mM and incubation for 30 min in dark. The sample was enzymatically digested by addition of 16 μL of a 1 μG/μL trypsin solution and incubation overnight at 37° C. After that, the sample pH was lowered with 5% TFA to induce detergent degradation. To avoid nonspecific adsorption of very hydrophobic peptides, acetonitrile was added to 20%. The samples were centrifuged at 6° C. and 14000 rpm for 30 min and the supernatant was diluted with 0.1% formic acid to reduce acetonitrile concentration to 10% prior to filtration with a 10 kDa cut-off microcon centrifugal filter (Millipore, Billerica, Mass.). The filter was washed with 50 μL of 10% ACN in 0.1% formic acid and the collected sample was evaporated to dryness and reconstituted with 10% ACN in 0.1% formic acid.\nLC-MS/MS analysis was performed on a SYNAPT HDMS (Waters, Milford, Mass.) controlled by MassLynx 4.1 software (Waters) and equipped with a nanoESI source. Each sample was injected in triplicate. A nanoACQUITY UPLC (Waters) system was used for peptide separation by reversed-phase liquid chromatography. After injection, analytes were trapped for 3 min with 3% mobile phase A (0.1% formic acid in water) at 5 μl/min on a 5 μm Symmetry C18 column (180 μm×20 mm, Waters) and further separated on a 1.7 μm BEH130 C18 column (75 μm×150 mm, Waters). The analytical column temperature was held at 35° C. Peptides were separated at flow rate 0.3 μl/min. The gradient was linear 3-40% B (0.1% formic acid in acetonitrile), either 50 min long, or 60 min for the digested samples. The capillary voltage was 3.2 kV, the cone voltage was 35 V and the source temperature was 100° C. [Glu1]-fibrinogen peptide was used for lock-mass correction with a sampling rate of 30 s. Mass spectra were acquired in positive mode over an m/z range 400-2000 Da at scan rate 0.6 s. The time window used for the MS/MS function was ±3 min of the retention time of the selected peptide. The presence of the analyte was confirmed by MS/MS. Selectivity was studied by analysis of blank samples to determine the presence of any interference coeluting with the analyte.\nJuvenile baboons (P. Anubis, Baboon Research Resources, University of Oklahoma) weighing 5-8 kg were used. Three baboons were used for the study; one for each compound. All animals received a bolus dose of peptides (10 mg) by injection through the peripheral vein. […]"}}, "note": "Like-named read-outs stand apart in the source and are kept apart here.", "data": [{"smiles": "CC[C@H](C)[C@H](NC(=O)[C@@H]1CSSC[C@H](NC(=O)[C@@H](NC(C)=O)[C@@H](C)CC)C(=O)N[C@@H](C(C)C)C(=O)N[C@@H](Cc2cn(C)c3ccccc23)C(=O)N[C@@H](CCC(N)=O)C(=O)N[C@@H](CC(=O)O)C(=O)N[C@@H](Cc2c[nH]c3ccccc23)C(=O)N(C)CC(=O)N[C@@H](C)C(=O)N[C@@H](Cc2c[nH]cn2)C(=O)N[C@@H](CCCNC(=N)N)C(=O)N1)C(N)=O", "note": "[Peptide 17, Ac−Ic[CV(^1−MeW)QDW(^N−MeG)AHRC]I-NH2]", "values": [{"measurement": "IC50", "setting": "[1]; Table 1-2, read-out: IC50", "result": 92, "unit": "nM"}, {"measurement": "IC50", "setting": "[1]; classical pathway, human serum, Table 2-1, read-out: IC50 (nM, CP)", "result": 92, "unit": "nM"}, {"measurement": "IC50", "setting": "[1]; exemplary analogs table, read-out: IC50", "result": 92, "unit": "nM"}, {"measurement": "rP", "setting": "[1]; relative potency compared to peptide 14", "result": 2.2}, {"measurement": "IC50 (fold change)", "setting": "[1]; relative to peptide 17", "result": 1}, {"measurement": "ΔH", "setting": "[2]; ITC", "result": -14.1, "unit": "kcal/mol"}, {"measurement": "ΔH (text)", "setting": "[2]; ITC", "result": -14.1, "unit": "kcal/mol"}, {"measurement": "−TΔS", "setting": "[2]; ITC", "result": 2.9, "unit": "kcal/mol"}, {"measurement": "−TΔS (text)", "setting": "[2]; ITC", "result": 2.9, "unit": "kcal/mol"}, {"measurement": "ΔG", "setting": "[2]; ITC, ΔG=ΔH−TΔS", "result": -11.2, "unit": "kcal/mol"}, {"measurement": "rKD ITC", "setting": "[2]; relative to peptide 14", "result": 2.4}, {"measurement": "ΔΔG", "setting": "[2]; relative to peptide 14", "result": -0.5, "unit": "kcal/mol"}, {"measurement": "ΔΔH", "setting": "[2]; relative to peptide 14", "result": 3.5, "unit": "kcal/mol"}, {"measurement": "−TΔΔS", "setting": "[2]; relative to peptide 14", "result": -4.1, "unit": "kcal/mol"}, {"measurement": "half-life", "setting": "[3]", "result": "~1", "unit": "h"}]}]}
